In data set [1] the test system is RAW264.7 macrophages. As to the kind of experiment: Macropinocytosis inhibition, dextran-pHrodo uptake by flow cytometry. The format is cell-based. As to conditions: 2 h inhibitor, then 30 min dye. On the procedure: (§1) FIG. 2. […] (a) Cryogenic transmission electron microscopy (CryoTEM) of MiNP visually confirms retention of micellar structures. (b) MiNP with ((+) MiNP) and without ((−) MiNP) loaded LatA were characterized via small angle X-ray scattering (SAXS) and fitted with a micelle model fit using SASView. […] Cells were treated with each inhibitor for 2 h followed by 30 min of incubation with pHrodo dextran prior to analysis by flow cytometry. Data are shown as a percentile scale of endocytosis inhibition. On this scale, 0% represents standard cell uptake with no inhibitor, while 100% represents complete inhibition with no uptake of dye. N=3, p<0.001. […] N=3, p<0.001. […] Macrophages were incubated with various doses of free LatA or (+) MiNP for 4 h and assessed by flow cytometry for viability via the Zombie Aqua live/dead assay. N=3, p<0.05.
(§2) To investigate macropinocytosis inhibition by MiNP and determine whether this inhibition still permits uptake via receptor-mediated endocytosis, (+) MiNP were compared to chlorpromazine, an inhibitor of receptor-mediated endocytosis. These distinct mechanisms of endocytosis were evaluated using dextran conjugated pHrodo dye and transferrin conjugated pHrodo dye to respectively quantify effects of (+) MiNP and chlorpromazine on macropinocytosis (dextran) and receptor-mediated endocytosis (transferrin). […]
Background: In flow cytometry, cells or beads pass a laser one at a time.

Data set [2] relates to RAW264.7 macrophages. Description: In vitro macrophage cytotoxicity, Zombie Aqua live/dead assay. Format: cell-based. As to conditions: free drug. On the procedure: as §1, §2
Another data set has as its system B16F10 melanoma cells. As to the kind of experiment: LatA inhibition of E-MC and E-MC(FA) uptake. As to conditions: 0.5 μM LatA 2 h, then 30 min micelles. Format: cell-based, mouse. The procedure:
FIG. 10. […] B16F10 melanoma cells were treated with 0.5 μM LatA for 2 h followed by 30 min of incubation with either non-targeted E-MC or folate receptor targeted E-MC(FA) prior to analysis by flow cytometry. Data are shown as percentage inhibition of endocytosis normalized to untreated […]. N=3, p<0.001.

Data set [3] has as its system RAW264.7 macrophages. Description: Receptor-mediated endocytosis, transferrin-pHrodo uptake by flow cytometry. The format is cell-based. As to conditions: 2 h inhibitor, then 30 min dye. On the procedure:
as §1, §2

Turning to `C/C1=C/C(=O)O[C@@H]2C[C@@H](CC[C@H](C)/C=C\C=C\CC1)O[C@@](O)([C@@H]1CSC(=O)N1)C2` [free LatA, latrunculin A], the “inhibition of dextran-pHrodo uptake (macropinocytosis)” value in the data set on RAW264.7 macrophages [1] was “much stronger inhibition of uptake than free chlorpromazine”; in the data set with RAW264.7 macrophages [1] (listed as Free LatA), “significantly inhibited macropinocytosis”. For the same compound, the “doses with significant toxicity to macrophages” value in the data set with RAW264.7 macrophages [2] is not below 0.5 µM. For the same compound, the “inhibition of endocytosis of E-MC vs E-MC(FA)” value in the data set on B16F10 melanoma cells is reported as “inhibits uptake of non-targeted E-MC more than targeted E-MC(FA)”.

`CN(C)CCCN1c2ccccc2Sc2ccc(Cl)cc21` [free chlorpromazine, chlorpromazine]: the “inhibition of transferrin-pHrodo uptake (receptor-mediated endocytosis)” value is reported as “significantly inhibited endocytosis” in the data set with RAW264.7 macrophages [3] and “significantly inhibited” with RAW264.7 macrophages [3] (listed as chlorpromazine).

The values above are taken from US20220047719A1, “ENHANCING SUBCUTANEOUS INJECTION AND TARGET TISSUE ACCUMULATION OF NANOPARTICLES VIA CO-ADMINISTRATION WITH MACROPINOCYTOSIS INHIBITORY NANOPARTICLES (MINP)” (Northwestern University, priority 2020, published 2022).
